Here are results for 2 molecules from patent publication US11078188B2, “Dihydroquinoxaline bromodomain recognition protein inhibitor, preparation method and use thereof” (SHANGHAI INSTITUTE OF MATERIA MEDICA, CHINESE ACADEMY OF …, priority 2017, dated 2021).

In one series the target is 1A2 (Homo sapiens (Human), UniProt P05177). As to the kind of experiment: Direct inhibition test (DI test), CYP 1A2. Type of series: in vitro ADME. Conditions: human liver microsomes 0.2 mg/ml, 20 min. Here is the method:
(§1) The system which was 100 μl of human liver microsomes (final concentration: 0.2 mg/ml) was used for direct inhibition incubation. The system contained NADPH (final concentration: 1 mM), 10 μl compound, positive inhibitor cocktail (ketoconazole, 10 μl, quinidine 10 μl, sulfaphenazole 100 μl, naphthoflavone 10 μl, tranylcypromine 1000 μl), negative control 10 μl DMSO and mixed probe substrate (midazolam 10 μl, testosterone 100 μl, dextromethorphan 10 μl, diclofenac 20 μl, phenacetin 100 μl, mephenytoin 100 μl). The reaction was stopped after the system was incubated for 20 min. The relative activity of the enzyme was calculated by measuring the relative amount of production of the metabolite.

The target of another series is 2C9 (Homo sapiens (Human), UniProt P11712). As to the kind of experiment: Direct inhibition test (DI test), CYP 2C9. The class given is in vitro ADME. To be noted: human liver microsomes 0.2 mg/ml, 20 min. Here is the method: as §1
Background: Liver microsomes are a subcellular fraction often used to study metabolism.

Another series has as its target BRD4 (I) (Homo sapiens (Human), UniProt O60885). As to the kind of experiment: Fluorescence anisotropy (FA) binding test on BRD4 (I). Conditions: BRD4 (I) 10 nM, fluorescent (+)-JQ1 substrate 5 nM, read-out: BRD4 (1) IC50. On the technique in general: Fluorescence polarisation rises when a labelled molecule tumbles more slowly, as on binding a larger partner.
The next series has as its target CYP3A4 (Homo sapiens (Human), UniProt P08684). The series can be described thus: Direct inhibition test (DI test), CYP 3A4. The class given is in vitro ADME. Conditions: human liver microsomes 0.2 mg/ml, first of two values a/b (two 3A4 probes midazolam, testosterone; assignment not given), read-out: Direct inhibition rate (%) 3A4, first value.
The target of another series is CYP2D6 (Homo sapiens (Human), UniProt P10635). The series can be described thus: Direct inhibition test (DI test), CYP 2D6. Type of series: in vitro ADME. Conditions: human liver microsomes 0.2 mg/ml, read-out: Direct inhibition rate (%) 2D6. Here is the method:
as §1

Chain of CYP2D6 (P10635 whole entry): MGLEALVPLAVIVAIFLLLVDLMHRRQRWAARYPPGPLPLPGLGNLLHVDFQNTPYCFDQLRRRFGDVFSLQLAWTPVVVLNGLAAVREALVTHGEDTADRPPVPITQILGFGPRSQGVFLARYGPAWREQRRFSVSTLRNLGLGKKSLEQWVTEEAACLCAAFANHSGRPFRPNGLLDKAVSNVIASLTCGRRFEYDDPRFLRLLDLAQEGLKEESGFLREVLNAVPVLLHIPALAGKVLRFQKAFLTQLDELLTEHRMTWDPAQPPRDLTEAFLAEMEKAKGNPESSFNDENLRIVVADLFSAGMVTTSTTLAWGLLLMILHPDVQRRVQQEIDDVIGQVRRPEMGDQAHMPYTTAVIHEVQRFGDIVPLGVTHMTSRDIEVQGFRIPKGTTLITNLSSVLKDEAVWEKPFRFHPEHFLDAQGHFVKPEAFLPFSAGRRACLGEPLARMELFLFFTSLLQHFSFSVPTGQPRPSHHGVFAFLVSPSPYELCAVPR
Chain of CYP3A4 (P08684 whole entry): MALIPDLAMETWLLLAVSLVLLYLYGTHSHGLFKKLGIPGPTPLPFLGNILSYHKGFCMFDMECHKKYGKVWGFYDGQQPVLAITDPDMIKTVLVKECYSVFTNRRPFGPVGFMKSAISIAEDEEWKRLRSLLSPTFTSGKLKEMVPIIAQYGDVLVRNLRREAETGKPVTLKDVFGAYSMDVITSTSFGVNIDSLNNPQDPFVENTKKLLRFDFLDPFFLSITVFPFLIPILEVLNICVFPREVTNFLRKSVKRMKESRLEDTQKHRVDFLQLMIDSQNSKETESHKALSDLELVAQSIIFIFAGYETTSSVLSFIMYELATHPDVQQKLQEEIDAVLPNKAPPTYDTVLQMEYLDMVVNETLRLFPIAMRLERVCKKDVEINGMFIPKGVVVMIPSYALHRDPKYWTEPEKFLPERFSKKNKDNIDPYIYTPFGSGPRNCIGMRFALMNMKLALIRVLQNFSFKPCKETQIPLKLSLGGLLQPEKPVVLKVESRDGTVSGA
Chain of 2C9 (P11712 whole entry): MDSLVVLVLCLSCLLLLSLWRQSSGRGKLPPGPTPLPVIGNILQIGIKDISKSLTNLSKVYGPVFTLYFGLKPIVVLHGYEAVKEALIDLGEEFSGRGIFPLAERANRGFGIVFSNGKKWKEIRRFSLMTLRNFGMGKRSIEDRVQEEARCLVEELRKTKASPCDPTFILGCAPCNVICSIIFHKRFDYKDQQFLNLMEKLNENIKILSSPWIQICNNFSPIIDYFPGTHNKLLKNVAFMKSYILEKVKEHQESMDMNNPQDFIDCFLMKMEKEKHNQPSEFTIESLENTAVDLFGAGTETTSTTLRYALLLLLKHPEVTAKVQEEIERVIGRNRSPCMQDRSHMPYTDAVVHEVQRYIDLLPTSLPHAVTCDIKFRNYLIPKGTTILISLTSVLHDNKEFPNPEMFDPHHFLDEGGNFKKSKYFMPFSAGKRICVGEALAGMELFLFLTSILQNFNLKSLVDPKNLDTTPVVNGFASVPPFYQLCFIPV
Chain of 1A2 (P05177 whole entry): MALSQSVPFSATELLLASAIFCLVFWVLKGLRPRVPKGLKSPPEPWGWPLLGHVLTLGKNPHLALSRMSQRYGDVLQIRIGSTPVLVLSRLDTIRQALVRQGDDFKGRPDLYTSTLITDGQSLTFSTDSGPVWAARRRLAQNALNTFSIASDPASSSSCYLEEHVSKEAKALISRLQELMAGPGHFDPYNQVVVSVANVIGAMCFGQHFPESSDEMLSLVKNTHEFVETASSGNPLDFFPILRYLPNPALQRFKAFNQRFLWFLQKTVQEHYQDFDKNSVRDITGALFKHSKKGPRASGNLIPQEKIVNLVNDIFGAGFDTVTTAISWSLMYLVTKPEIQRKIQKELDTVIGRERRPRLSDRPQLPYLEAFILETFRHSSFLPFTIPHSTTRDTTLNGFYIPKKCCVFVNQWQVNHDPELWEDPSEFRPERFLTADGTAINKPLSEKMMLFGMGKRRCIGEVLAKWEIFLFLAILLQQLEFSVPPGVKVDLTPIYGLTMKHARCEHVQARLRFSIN

In general, IC50 refers to the concentration at which inhibition is half-maximal. The inhibition is the change of the read-out against control, counted positive when it falls. `Cc1ccc(-n2nc(C(=O)N3C[C@@H](C)N[C@@H](C)C3)nc2-c2ccc3c(c2)N(C2CCCC2)[C@H](C)C(=O)N3C)cc1` [Example 12]: the “Direct inhibition rate (%) 1A2” value at 1A2 was “no”. In addition, the “Direct inhibition rate (%) 2C9” value on 2C9 was 28%. Moreover, the IC50 at BRD4 (I) was 4.9 nM. Also, the results for the inhibition at 20 min on CYP3A4 and on CYP2D6 were 23% and 4%, respectively.
In the case of `Cc1ccc(-n2nc(C(=O)N3CCN(C)CC3)nc2-c2ccc3c(c2)N(C2CCCC2)[C@H](C)C(=O)N3C)cc1` [Example 6], the IC50 at BRD4 (I) came to 6.5 nM.
